From ChEMBL document CHEMBL6182870, “Synthesis and biological activity of 1H-pyrrolo[3,2-g]isoquinolines as Haspin kinase inhibitors” (Bioorg Med Chem, 2025)
pEC50, pIC50: −log10 of the molar value.

Key:
[1] = molecular target: T1, Serine/threonine-protein kinase haspin (Homo sapiens) (UniProt Q8TF76); experiment: Inhibition of recombinant human haspin kinase domain (470 to 798 residues) extracted from bacteria using histone H3 (1 to 21) peptide as substrate assessed as residual activity at 10 uM incubated for 30 mins in presence of ATP by ADP-Glo kinase assay relative to control
T1 sequence (whole entry): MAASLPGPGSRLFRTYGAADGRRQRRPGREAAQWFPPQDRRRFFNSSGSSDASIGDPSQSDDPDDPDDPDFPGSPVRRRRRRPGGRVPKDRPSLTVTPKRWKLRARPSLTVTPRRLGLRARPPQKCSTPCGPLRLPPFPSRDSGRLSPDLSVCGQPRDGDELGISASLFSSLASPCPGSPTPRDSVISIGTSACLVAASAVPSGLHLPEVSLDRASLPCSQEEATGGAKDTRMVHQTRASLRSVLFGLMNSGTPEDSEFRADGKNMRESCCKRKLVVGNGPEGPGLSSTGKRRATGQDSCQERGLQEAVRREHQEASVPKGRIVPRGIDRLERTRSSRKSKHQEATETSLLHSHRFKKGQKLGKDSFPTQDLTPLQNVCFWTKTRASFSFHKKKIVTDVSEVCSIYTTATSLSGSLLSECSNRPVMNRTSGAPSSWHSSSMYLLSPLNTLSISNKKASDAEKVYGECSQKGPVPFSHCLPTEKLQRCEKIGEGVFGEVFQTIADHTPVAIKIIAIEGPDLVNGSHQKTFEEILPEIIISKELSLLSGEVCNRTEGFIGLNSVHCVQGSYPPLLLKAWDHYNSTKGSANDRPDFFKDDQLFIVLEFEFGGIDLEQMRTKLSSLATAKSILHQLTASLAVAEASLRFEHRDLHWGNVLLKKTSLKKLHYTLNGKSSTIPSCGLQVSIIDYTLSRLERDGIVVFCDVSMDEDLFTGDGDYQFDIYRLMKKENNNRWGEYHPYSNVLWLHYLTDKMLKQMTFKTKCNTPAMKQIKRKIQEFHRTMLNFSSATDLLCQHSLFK

[2] = molecular target: T1, Serine/threonine-protein kinase haspin (Homo sapiens); experiment: Inhibition of recombinant human haspin kinase domain (470 to 798 residues) extracted from bacteria using histone H3 (1 to 21) peptide as substrate assessed as residual activity at 1 uM incubated for 30 mins in presence of ATP by ADP-Glo kinase assay relative to control
[3] = molecular target: Dual specificity tyrosine-phosphorylation-regulated kinase 1A (Rattus norvegicus, UniProt Q63470); experiment: Inhibition of recombinant rat DYRK1A kinase domain (1 to 499 residues) extracted from bacteria using KKISGRLSPIMTEQ as substrate incubated for 30 mins in presence of ATP by ADP-Glo kinase assay
[4] = tested on: SH-SY5Y; experiment: Antiproliferative activity against human SH-SY5Y cells assessed as inhibition of cell viability incubated for 48 hrs by MTS assay; format: functional, cell-based
[5] = Inhibition of recombinant human CDK9/Cyclin T extracted from baculovirus infected Sf9 cells using YSPTSPSYSPTSPSYSPTSPSKKKK as substrate assessed as enzyme residual activity at 10 uM incubated for 30 mins in presence of ATP by ADP-Glo kinase assay relative to control
[6] = molecular target: Glycogen synthase kinase-3 beta (Homo sapiens) (UniProt P49841); experiment: Inhibition of recombinant human GSK3beta extracted from baculovirus infected Sf9 cells using GS-1 (YRRAAVPPSPSLSRHSSPHQSpEDEEE) peptide as substrate assessed as enzyme residual activity at 1 uM incubated for 30 mins in presence of ATP by ADP-Glo kinase assay relative to control
Chain of Glycogen synthase kinase-3 beta (Homo sapiens) (P49841 whole entry, looked up): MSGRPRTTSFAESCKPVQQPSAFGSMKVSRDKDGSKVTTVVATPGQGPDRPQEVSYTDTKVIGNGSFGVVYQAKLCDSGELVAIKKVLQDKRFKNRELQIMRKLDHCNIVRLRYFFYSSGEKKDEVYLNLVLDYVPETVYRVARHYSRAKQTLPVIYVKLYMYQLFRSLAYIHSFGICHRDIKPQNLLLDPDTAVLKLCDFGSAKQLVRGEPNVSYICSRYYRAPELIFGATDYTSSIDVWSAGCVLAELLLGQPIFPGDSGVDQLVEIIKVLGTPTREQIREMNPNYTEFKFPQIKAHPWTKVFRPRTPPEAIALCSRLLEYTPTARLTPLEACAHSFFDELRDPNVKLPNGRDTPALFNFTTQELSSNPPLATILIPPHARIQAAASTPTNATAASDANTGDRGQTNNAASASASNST

[7] = molecular target: Dual specificity protein kinase CLK1 (Mus musculus, UniProt P22518); experiment: Inhibition of recombinant mouse CLK1 extracted from bacteria using GRSRSRSRSRSR as substrate incubated for 30 mins in presence of ATP by ADP-Glo kinase assay
Chain of Dual specificity protein kinase CLK1 (P22518 whole entry): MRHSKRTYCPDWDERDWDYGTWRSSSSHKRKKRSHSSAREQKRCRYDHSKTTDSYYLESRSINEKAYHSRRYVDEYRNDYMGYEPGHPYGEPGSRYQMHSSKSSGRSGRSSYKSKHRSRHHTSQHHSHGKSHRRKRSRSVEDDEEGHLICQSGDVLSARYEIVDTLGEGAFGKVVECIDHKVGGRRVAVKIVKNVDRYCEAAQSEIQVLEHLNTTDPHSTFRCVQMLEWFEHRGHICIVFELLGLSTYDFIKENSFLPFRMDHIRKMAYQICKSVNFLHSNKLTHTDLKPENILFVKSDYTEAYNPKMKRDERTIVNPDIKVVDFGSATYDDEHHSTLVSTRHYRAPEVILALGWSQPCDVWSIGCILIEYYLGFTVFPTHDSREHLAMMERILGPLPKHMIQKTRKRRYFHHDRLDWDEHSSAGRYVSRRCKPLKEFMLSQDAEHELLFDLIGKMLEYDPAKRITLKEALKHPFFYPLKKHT

[8] = tested on: HCT-116; experiment: Antiproliferative activity against human HCT-116 cells assessed as inhibition of cell viability incubated for 48 hrs by MTS assay; format: functional, cell-based; conditions: HCT-116, 48 h
[9] = molecular target: T2, Serine/threonine-protein kinase pim-1 (Homo sapiens, UniProt P11309); experiment: Inhibition of recombinant human PIM-1 extracted from bacteria using histone H1 as substrate assessed as enzyme residual activity at 1 uM incubated for 30 mins in presence of ATP by ADP-Glo kinase assay relative to control
Target sequence in this assay (P11309 whole entry, looked up): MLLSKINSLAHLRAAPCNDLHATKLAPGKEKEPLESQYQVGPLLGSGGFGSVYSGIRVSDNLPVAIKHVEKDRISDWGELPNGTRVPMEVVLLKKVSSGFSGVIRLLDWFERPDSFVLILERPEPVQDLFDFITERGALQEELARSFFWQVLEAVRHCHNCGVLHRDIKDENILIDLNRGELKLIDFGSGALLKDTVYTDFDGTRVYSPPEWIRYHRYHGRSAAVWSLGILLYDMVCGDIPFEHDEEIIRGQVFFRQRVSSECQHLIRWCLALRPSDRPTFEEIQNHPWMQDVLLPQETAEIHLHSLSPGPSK

[10] = molecular target: T3, Cyclin-dependent kinase 5/CDK5 activator 1 (Homo sapiens) (UniProt Q00535+Q15078); experiment: Inhibition of recombinant human CDK5/p25 extracted from bacteria using histone H1 as substrate assessed as enzyme residual activity at 10 uM incubated for 30 mins in presence of ATP by ADP-Glo kinase assay relative to control; format: protein-complex assay
T3 sequence (Q00535 whole entry): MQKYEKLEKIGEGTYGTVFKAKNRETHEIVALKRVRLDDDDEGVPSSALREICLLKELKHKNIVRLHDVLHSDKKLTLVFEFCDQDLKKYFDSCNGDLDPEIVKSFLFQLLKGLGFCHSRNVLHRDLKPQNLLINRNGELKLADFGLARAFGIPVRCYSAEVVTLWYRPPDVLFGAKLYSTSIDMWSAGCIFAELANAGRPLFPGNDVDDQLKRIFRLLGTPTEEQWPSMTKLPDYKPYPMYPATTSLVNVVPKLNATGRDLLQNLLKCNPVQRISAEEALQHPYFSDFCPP
T3 sequence (Q15078 99-307 partner limits assumed): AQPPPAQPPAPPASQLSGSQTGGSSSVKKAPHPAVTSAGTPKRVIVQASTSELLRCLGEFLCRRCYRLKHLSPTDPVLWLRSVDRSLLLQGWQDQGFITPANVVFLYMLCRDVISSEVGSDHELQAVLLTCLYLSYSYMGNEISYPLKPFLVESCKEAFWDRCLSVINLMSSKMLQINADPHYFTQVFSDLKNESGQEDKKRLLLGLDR

[11] = molecular target: Dual specificity protein kinase CLK1 (Mus musculus) (UniProt P22518); experiment: Inhibition of recombinant mouse CLK1 extracted from bacteria using GRSRSRSRSRSR as substrate assessed as enzyme residual activity at 10 uM incubated for 30 mins in presence of ATP by ADP-Glo kinase assay relative to control
Chain of Dual specificity protein kinase CLK1 (Mus musculus) (P22518 whole entry, looked up, the tested form may be a part, canonical isoform): as the sequence (P22518 whole entry) above

[12] = molecular target: Casein kinase I isoform epsilon (Homo sapiens) (UniProt P49674); experiment: Inhibition of recombinant human CK1epsilon extracted from baculovirus infected Sf9 cells using RRKHAAIGSpAYSITA peptide as substrate assessed as enzyme residual activity at 1 uM incubated for 30 mins in presence of ATP by ADP-Glo kinase assay relative to control
Chain of Casein kinase I isoform epsilon (Homo sapiens) (P49674 whole entry, looked up, the tested form may be a part, canonical isoform): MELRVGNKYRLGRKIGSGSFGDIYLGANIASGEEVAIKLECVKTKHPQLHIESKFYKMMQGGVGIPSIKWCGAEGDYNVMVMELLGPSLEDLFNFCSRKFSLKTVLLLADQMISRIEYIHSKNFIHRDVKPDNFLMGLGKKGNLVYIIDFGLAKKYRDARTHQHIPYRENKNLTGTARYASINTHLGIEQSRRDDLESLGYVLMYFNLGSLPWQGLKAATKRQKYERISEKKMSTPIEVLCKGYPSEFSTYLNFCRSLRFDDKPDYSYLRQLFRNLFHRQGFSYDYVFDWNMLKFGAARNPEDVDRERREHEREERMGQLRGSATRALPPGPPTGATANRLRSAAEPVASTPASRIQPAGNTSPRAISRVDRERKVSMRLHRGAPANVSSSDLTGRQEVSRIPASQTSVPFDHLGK

[13] = molecular target: Glycogen synthase kinase-3 beta (Homo sapiens) (UniProt P49841); experiment: Inhibition of recombinant human GSK3beta extracted from baculovirus infected Sf9 cells using GS-1 (YRRAAVPPSPSLSRHSSPHQSpEDEEE) peptide as substrate assessed as enzyme residual activity at 10 uM incubated for 30 mins in presence of ATP by ADP-Glo kinase assay relative to control
[14] = molecular target: T3, Cyclin-dependent kinase 5/CDK5 activator 1 (Homo sapiens); experiment: Inhibition of recombinant human CDK5/p25 extracted from bacteria using histone H1 as substrate assessed as enzyme residual activity at 1 uM incubated for 30 mins in presence of ATP by ADP-Glo kinase assay relative to control; format: protein-complex assay
[15] = Inhibition of recombinant human CDK9/Cyclin T extracted from baculovirus infected Sf9 cells using YSPTSPSYSPTSPSYSPTSPSKKKK as substrate assessed as enzyme residual activity at 1 uM incubated for 30 mins in presence of ATP by ADP-Glo kinase assay relative to control
[16] = tested on: HBL-100; experiment: Antiproliferative activity against human HBL-100 cells assessed as inhibition of cell viability incubated for 48 hrs by MTS assay; format: functional, cell-based; conditions: HBL-100, 48 h
[17] = molecular target: Dual specificity tyrosine-phosphorylation-regulated kinase 1A (Rattus norvegicus) (UniProt Q63470); experiment: Inhibition of recombinant rat DYRK1A kinase domain (1 to 499 residues) extracted from bacteria using KKISGRLSPIMTEQ as substrate assessed as enzyme residual activity at 1 uM incubated for 30 mins in presence of ATP by ADP-Glo kinase assay relative to control
[18] = molecular target: T2, Serine/threonine-protein kinase pim-1; experiment: Inhibition of recombinant human PIM-1 extracted from bacteria using histone H1 as substrate assessed as enzyme residual activity at 10 uM incubated for 30 mins in presence of ATP by ADP-Glo kinase assay relative to control
Target sequence in this assay (P11309 whole entry, looked up): as the sequence (P11309 whole entry, looked up) above

[19] = molecular target: T1, Serine/threonine-protein kinase haspin (Homo sapiens); experiment: Inhibition of haspin in human U2OS cells assessed as at 5 uM incubated for 16 hrs by DAPI staining based immunofluorescence analysis relative to control; format: cell-based
[20] = molecular target: T2, Serine/threonine-protein kinase pim-1; experiment: Inhibition of recombinant human PIM-1 extracted from bacteria using histone H1 as substrate incubated for 30 mins in presence of ATP by ADP-Glo kinase assay
Target sequence in this assay (P11309 whole entry): as the sequence (P11309 whole entry, looked up) above

[21] = Cytotoxicity against human hTERT-RPE1 cells assessed as effect on cell viability incubated for 48 hrs by MTS assay; format: toxicity, cell-based, TERT-RPE1
[22] = molecular target: Casein kinase I isoform epsilon (Homo sapiens) (UniProt P49674); experiment: Inhibition of recombinant human CK1epsilon extracted from baculovirus infected Sf9 cells using RRKHAAIGSpAYSITA peptide as substrate assessed as enzyme residual activity at 10 uM incubated for 30 mins in presence of ATP by ADP-Glo kinase assay relative to control
[23] = molecular target: T4, Serine/threonine-protein kinase haspin (Homo sapiens, UniProt Q8TF76); experiment: Inhibition of recombinant human haspin kinase domain (470 to 798 residues) extracted from bacteria using histone H3 (1 to 21) peptide as substrate incubated for 30 mins in presence of ATP by ADP-Glo kinase assay
T4 sequence (Q8TF76 whole entry): T1 sequence (whole entry)

[24] = molecular target: Dual specificity protein kinase CLK1 (Mus musculus) (UniProt P22518); experiment: Inhibition of recombinant mouse CLK1 extracted from bacteria using GRSRSRSRSRSR as substrate assessed as enzyme residual activity at 1 uM incubated for 30 mins in presence of ATP by ADP-Glo kinase assay relative to control
[25] = molecular target: Dual specificity tyrosine-phosphorylation-regulated kinase 1A (Rattus norvegicus) (UniProt Q63470); experiment: Inhibition of recombinant rat DYRK1A kinase domain (1 to 499 residues) extracted from bacteria using KKISGRLSPIMTEQ as substrate assessed as enzyme residual activity at 10 uM incubated for 30 mins in presence of ATP by ADP-Glo kinase assay relative to control
[26] = tested on: U2OS; experiment: Antiproliferative activity against human U2OS cells assessed as inhibition of cell viability incubated for 48 hrs by MTS assay; format: functional, cell-based

| SMILES | Activity [1] | Activity [2] | Activity [5] | Activity [6] | Activity [9] | Activity [10] | Activity [11] | Activity [12] | Activity [13] | Activity [14] | Activity [15] | Activity [17] | Activity [18] | Activity [22] | Activity [24] | Activity [25] | further results |
| --- | --- | --- | --- | --- | --- | --- | --- | --- | --- | --- | --- | --- | --- | --- | --- | --- | --- |
| O=C1CCC(N2C(=O)c3cccc(NCCOCCOCCOCCn4cc(Br)c5cc6ccncc6cc54)c3C2=O)C(=O)N1 (stereo unspecified) | 86% | 98% |  |  |  |  |  |  |  |  |  |  |  |  |  |  |  |
| c1cncc(-c2c[nH]c3cc4cnccc4cc23)c1 | 2% | 7% | 39% | 75% | 37% | 57% | 8% | 91% | 37% | 86% | 74% | 36% | 22% | 70% | 19% | 6% | pIC50 [3]: 6.22; pEC50 [4]: 4.39; pIC50 [7]: 6.62; pEC50 [8]: 4.89; pEC50 [16]: < 4.30; inhibition [19]: 26%; pIC50 [20]: 6.94; EC50 at 48 h [21]: 18200 nM; pIC50 [23]: 7.51; pEC50 [26]: 4.57 |
| O=C1CCC(N2C(=O)c3cccc(NCCOCCOCCOCCNC(=O)c4c[nH]c5cc6cnccc6cc45)c3C2=O)C(=O)N1 (stereo unspecified) | 60% | 74% | 86% | 82% | 67% | 100% | 97% | 100% | 85% | 100% | 100% | 90% | 75% | 99% | 97% | 84% |  |
| c1cc2c(ccc3cc[nH]c32)cn1 | 9% | 39% | 45% | 82% | 64% | 63% | 43% | 95% | 76% | 77% | 59% | 50% | 38% | 94% | 80% | 31% | pIC50 [23]: 6.59 |
| O=C1CCC(N2C(=O)c3cccc(NCCOCCOCCOCCn4cc(I)c5cc6ccncc6cc54)c3C2=O)C(=O)N1 (stereo unspecified) | 100% | 80% |  |  |  |  |  |  |  |  |  |  |  |  |  |  |  |
| Cn1cc(-c2ccccn2)c2cc3ccncc3cc21 | 7% | 25% | 49% | 67% | 74% | 100% | 36% | 100% | 53% | 100% | 77% | 63% | 38% | 89% | 73% | 23% | pIC50 [23]: 6.76 |
| O=C1CCC(N2C(=O)c3cccc(NCCOCCOCCOCCn4cc(-c5cccnc5)c5cc6ccncc6cc54)c3C2=O)C(=O)N1 (stereo unspecified) | 71% | 70% | 81% | 86% | 61% | 100% | 79% | 100% | 74% | 100% | 91% | 65% | 66% | 91% | 90% | 74% |  |
| O=C1CCC(N2C(=O)c3cccc(NCCOCCOCCOCCn4cc(-c5ccncc5)c5cc6ccncc6cc54)c3C2=O)C(=O)N1 (stereo unspecified) | 71% | 67% | 96% | 84% | 74% | 100% | 89% | 99% | 81% | 100% | 97% | 90% | 64% | 84% | 100% | 64% |  |
| c1cc2cc3c(cc2cn1)NCC3 | 28% | 66% | 62% | 78% | 65% | 88% | 80% | 92% | 80% | 89% | 75% | 68% | 70% | 96% | 98% | 66% |  |
| O=C1CCC(N2C(=O)c3cccc(NCCOCCOCCOCCn4ccc5cc6ccncc6cc54)c3C2=O)C(=O)N1 (stereo unspecified) | 83% | 95% | 88% | 93% | 95% | 100% | 94% | 100% | 81% | 100% | 91% | 100% | 86% | 97% | 100% | 87% |  |
| O=C1CCC(N2C(=O)c3cccc(NCCOCCOCCOCCn4cc(Cl)c5cc6ccncc6cc54)c3C2=O)C(=O)N1 (stereo unspecified) | 90% | 78% |  |  |  |  |  |  |  |  |  |  |  |  |  |  |  |
